Where two headings read alike, the source gives them in different places.
Tests used:
[1] = tested on: human colon carcinoma HT29; assay: Proliferation assay (IC50) under aerobic and hypoxic conditions, HT29; format: cell-based; settings: for IC50: Homo sapiens, 4 h drug exposure, sulforhodamine B; for HCR: hypoxic cytotoxicity ratio = IC50 aerobic/IC50 hypoxic
Method: (§1) Compounds representative of the invention were evaluated under both aerobic and hypoxic conditions in a proliferation assay (IC50), using two cell lines: human colon carcinoma HT29, and human cervical carcinoma SiHa (Table 1).
(§2) Drug exposures were performed in 96-well plates (Nunc) either using a 37 DC humidified incubator (20% O2, 5% CO2) or in the incubator compartment (37° C.) of an anaerobic chamber (Shell Lab) where palladium catalyst scrubbed gas (90% N2, 5% H2, 5% CO2) ensures severe anoxia (<0.001% O2). For each experiment, compounds were simultaneously tested under both oxic and hypoxic conditions and included TPZ as an internal control. An 8-methyl-5-nitroquinoline derivative, SN 24349, known to require very low oxygen concentrations for bioactivation (Siim et al., Br. J. Cancer 1994, 70, 596-603) was used to confirm that strict hypoxia was present during the experiment. […] Cell cultures were grown in αMEM (Gibco) containing 5% heat inactivated FCS and maintained in exponential growth phase. For each individual experiment an appropriate number of cells were seeded (HT29=1100; SiHa=1500) into wells in αMEM+10% FCS+10 mM added glucose+100 μM 2′-deoxycytidine (2′dCyd), and allowed to attach for 2-3 h. High glucose (final concentration 17 mM) and the presence of 2′-dCyd minimize hypoxia-induced cell cycle arrest. Cultures were then exposed to drugs, using 3-fold serial dilutions in duplicate, for a further 4 h. Subsequently cells were washed free of compound using complete media (without glucose/2′-dCyd) and allowed to grow for 5 (oxic) or 6 (anoxic) days. Plates were stained with sulforhodamine B as described previously (Wilson et al., J. Med. Chem. 1989, 32, 31-38) and IC50 values determined.
(§3) HCR=Hypoxic cytotoxicity ratio is defined as the ratio of IC50 values under aerobic and hypoxic conditions (IC50 aerobic/IC50 hypoxic).

[2] = tested on: human cervical carcinoma SiHa; assay: Proliferation assay (IC50) under aerobic and hypoxic conditions, SiHa; format: cell-based; settings: for IC50: Homo sapiens, 4 h drug exposure, sulforhodamine B; for HCR: hypoxic cytotoxicity ratio = IC50 aerobic/IC50 hypoxic
Method: as §1, §2, §3

[3] = HT-29, hypoxic (anaerobic chamber, <0.001% O2), then 6 days growth, read-out: IC50 (μM) hypoxic
[4] = HT-29, oxic (20% O2), then 5 days growth, read-out: IC50 (μM) oxic
[5] = hypoxic (anaerobic chamber, <0.001% O2), then 6 days growth, read-out: IC50 (μM) hypoxic
[6] = oxic (20% O2), then 5 days growth, read-out: IC50 (μM) oxic

Row | Structure (SMILES) | melting point | IC50 [1, 3] | IC50 [1, 4] | HCR [1] | IC50 [2, 5] | IC50 [2, 6] | HCR [2]
1 | CN(C)CCNc1n[n+]([O-])c2c3c(ccc2[n+]1[O-])CCC3 [Compound 7, N^1,N^1-Dimethyl-N^2-(1,4-dioxido-8,9-dihydro-7H-indeno[5,4-e][1,2,4]triazin-3-yl)-1,2-ethanediamine] | 153 to 156 °C | 3 µM | 255 ± 53 µM | 67 | 1.6 µM | 226 ± 46 µM | 99
2 | COCCCN(C)CCNc1n[n+]([O-])c2cc3c(cc2[n+]1[O-])CCC3 [Compound 33, N^1-(1,4-Dioxido-7,8-dihydro-6H-indeno[5,6-e][1,2,4]triazin-3-yl)-N^2-(3-methoxypropyl)-N^2-methyl-1,2-ethanediamine] | 129 to 131 °C | 6.3 ± 2.1 µM | 315 ± 84 µM | 52 ± 4 | 2 ± 1.1 µM | 152 ± 38 µM | 92 ± 30
3 | CC1Cc2cc3c(cc2C1)[n+]([O-])c(CCCO)n[n+]3[O-] (stereo not shown) [Compound 105, 3-(7-Methyl-1,4-dioxido-7,8-dihydro-6H-indeno[5,6-e][1,2,4]triazin-3-yl)-1-propanol] | 130 to 131 °C | 13 ± 1.3 µM | 1040 ± 28 µM | 80 ± 2 | 8 ± 0.4 µM | 831 ± 30 µM | 104 ± 4
4 | [O-][n+]1nc(NCCCN2CCOCC2)[n+]([O-])c2cc3c(cc21)CCO3 [Compound 212, N-[3-(4-Morpholinyl)propyl]-7,8-dihydrofuro[2,3-g][1,2,4]benzotriazin-3-amine 1,4-Dioxide] | 186 to 189 °C | 48.6 ± 12.2 µM | 225 ± 136 µM | 6 ± 4 | 29.4 ± 4.2 µM | 355 ± 240 µM | 14 ± 10
5 | CCCN(CCC)CCNc1nc2ccc3c(c2[n+]([O-])n1)CCC3 [Compound 11, N^1-(1-Oxido-8,9-dihydro-7H-indeno[5,4-e][1,2,4]triazin-3-yl)-N^2,N^2-dipropyl-1,2-ethanediamine] | 133 to 135 °C | 12.4 µM | 99 ± 9 µM | 7 | 3.3 ± 0.3 µM | 74 ± 27 µM | 23 ± 10
6 | CCc1n[n+]([O-])c2cc3c(cc2[n+]1[O-])CCC3 [Compound 68, 3-Ethyl-7,8-dihydro-6H-indeno[5,6-e][1,2,4]triazine 1,4-Dioxide] | 140 to 142 °C | 48 ± 8 µM | 289 ± 3 µM | 6.0 ± 0.05 | 37 ± 2 µM | 326 ± 7 µM | 8.8 ± 0.2
7 | CN(C)CCNc1n[n+]([O-])c2cc3c(cc2[n+]1[O-])CCCO3 [Compound 242, N^1-(1,4-Dioxido-7,8-dihydro-6H-chromeno[6,7-e][1,2,4]triazin-3-yl)-N^2,N^2-dimethyl-1,2-ethanediamine] | 152 to 154 °C | 1.5 µM | 38 ± 10 µM | 19 | 0.31 µM | 25 ± 6 µM | 60
8 | [O-][n+]1nc(NCCN2CCCCC2)[n+]([O-])c2cc3c(cc21)CCC3 [Compound 37, N-[2-(1-Piperidinyl)ethyl]-7,8-dihydro-6H-indeno[5,6-e][1,2,4]triazin-3-amine 1,4-Dioxide] | 165 to 168 °C | 5.8 ± 2.9 µM | 186 ± 58 µM | 49 ± 35 | 1.3 ± 0.4 µM | 101 ± 25 µM | 143
9 | CN(C)CCNc1n[n+]([O-])c2cc3c(cc2[n+]1[O-])CCC3 [Compound 23, N^1-(1,4-Dioxido-7,8-dihydro-6H-indeno[5,6-e][1,2,4]triazin-3-yl)-N^2,N^2-dimethyl-1,2-ethanediamine] | 150 to 153 °C | 2.3 ± 0.6 µM | 318 ± 14 µM | 152 ± 35 | 0.7 ± 0.3 µM | 105 ± 21 µM | 111 ± 5
10 | CCNc1n[n+]([O-])c2cc3c(cc2[n+]1[O-])CN(C)CC3 [Compound 259, N-Ethyl-7-methyl-6,7,8,9-tetrahydro[1,2,4]triazino[6,5-g]isoquinolin-3-amine 1,4-Dioxide] | 120 to 124 °C | 2.6 ± 0.03 µM | 154 ± 19 µM | 59 ± 7 | 1.1 ± 0.5 µM | 111 ± 51 µM | 100 ± 2
11 | CN(C)CCNc1n[n+]([O-])c2cc3c(cc2[n+]1[O-])CCO3 [Compound 198, N^1-(1,4-Dioxido-6,7-dihydrofuro[3,2-g][1,2,4]benzotriazin-3-yl)-N^2,N^2-dimethyl-1,2-ethanediamine] | 149 to 151 °C | 2.4 ± 0.1 µM | 61 ± 6 µM | 23 ± 0.2 | 0.3 ± 0.02 µM | 36 ± 10 µM | 87 ± 9
12 | [O-][n+]1nc(CCCO)[n+]([O-])c2cc3c(cc21)CCC3 [Compound 71, 3-(1,4-Dioxido-7,8-dihydro-6H-indeno[5,6-e][1,2,4]triazin-3-yl)-1-propanol] | 153 to 155 °C | 15 ± 3 µM | 874 ± 119 µM | 57 ± 1 | 6.9 ± 3.3 µM | 680 ± 95 µM | 114 ± 31
13 | [O-][n+]1nc(NCCN2CCCCCC2)[n+]([O-])c2cc3c(cc21)CCC3 [Compound 47, N-[2-(1-Azepanyl)ethyl]-7,8-dihydro-6H-indeno[5,6-e][1,2,4]triazin-3-amine 1,4-Dioxide] | 181 to 184 °C | 1.4 ± 0.1 µM | 72 ± 2 µM | 52 ± 1 | 0.71 ± 0.01 µM | 67 ± 5 µM | 95 ± 6
14 | CC1Cc2cc3c(cc2C1)[n+]([O-])c(NCCN(C)C)n[n+]3[O-] (stereo not shown) [Compound 97, N^1,N^1-Dimethyl-N^2-(7-methyl-1,4-dioxido-7,8-dihydro-6H-indeno[5,6-e][1,2,4]triazin-3-yl)-1,2-ethanediamine] | 149 to 151 °C | 3.5 ± 0.4 µM | 185 ± 27 µM | 54 ± 14 | 1.4 ± 0.3 µM | 123 ± 17 µM | 97 ± 33
15 | CCCN(CCC)CCNc1n[n+]([O-])c2cc3c(cc2[n+]1[O-])CCC3 [Compound 29, N^1-(1,4-Dioxido-7,8-dihydro-6H-indeno[5,6-e][1,2,4]triazin-3-yl)-N^2,N^2-dipropyl-1,2-ethanediamine] | 142 to 145 °C | 2.5 µM | 196 µM | 77 | 0.7 µM | 63 µM | 91
16 | CCN(CC)CCNc1n[n+]([O-])c2cc3c(cc2[n+]1[O-])OCC3 [Compound 210, N^1-(1,4-Dioxido-7,8-dihydrofuro[2,3-g][1,2,4]benzotriazin-3-yl)-N^2,N^2-diethyl-1,2-ethanediamine] | 187 to 190 °C | 9.6 ± 3.6 µM | 708 ± 178 µM | 113 ± 53 | 3.4 ± 0.7 µM | 376 ± 10 µM | 122 ± 25

Reference: patent US7989451B2, “Tricyclic 1,2,4-triazine oxides and compositions for therapeutic use in cancer treatments” (Auckland Uniservices Limited, priority 2005, dated 2011)
